For two compounds, EC50 results are on record in doi:10.1101/2025.06.07.658027v2 (biorxiv, 2025).

Common to all, as to assay: two-electrode voltage clamp, Xenopus oocytes
Assay type in all cases: cell-based
(In general: In two-electrode clamp one electrode senses voltage and the other passes current.)

Experiment [1] deals with T1, AalbOR9 (Aedes albopictus, UniProt A0ABM1YMM4).
T1 sequence (A0ABM1YMM4 1-377): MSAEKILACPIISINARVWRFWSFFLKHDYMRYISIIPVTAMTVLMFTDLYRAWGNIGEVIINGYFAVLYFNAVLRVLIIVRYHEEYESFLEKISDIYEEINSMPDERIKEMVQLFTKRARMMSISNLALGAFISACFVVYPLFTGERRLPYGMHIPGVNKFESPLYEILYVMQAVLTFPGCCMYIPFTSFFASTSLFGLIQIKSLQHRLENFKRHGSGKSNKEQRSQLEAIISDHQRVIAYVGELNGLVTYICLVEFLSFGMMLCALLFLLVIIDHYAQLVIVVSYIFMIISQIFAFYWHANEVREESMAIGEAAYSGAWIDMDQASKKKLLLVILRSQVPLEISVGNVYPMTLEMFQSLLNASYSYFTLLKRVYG
T1 sequence (A0ABM1ZN50 1-479 partner): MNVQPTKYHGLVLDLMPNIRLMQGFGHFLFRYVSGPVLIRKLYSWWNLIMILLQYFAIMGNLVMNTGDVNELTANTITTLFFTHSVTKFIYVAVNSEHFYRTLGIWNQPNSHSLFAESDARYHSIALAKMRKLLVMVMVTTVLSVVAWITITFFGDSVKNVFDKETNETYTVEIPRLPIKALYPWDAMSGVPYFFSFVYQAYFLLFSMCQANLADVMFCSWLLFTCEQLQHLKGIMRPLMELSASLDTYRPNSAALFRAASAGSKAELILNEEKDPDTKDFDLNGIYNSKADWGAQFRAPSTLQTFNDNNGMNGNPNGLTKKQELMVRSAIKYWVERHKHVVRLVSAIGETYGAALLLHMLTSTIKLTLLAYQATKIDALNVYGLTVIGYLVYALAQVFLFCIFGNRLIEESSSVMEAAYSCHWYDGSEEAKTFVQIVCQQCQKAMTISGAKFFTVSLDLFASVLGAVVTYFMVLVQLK

Experiment [2] concerns the target T2, AalbOR10 (Aedes albopictus, UniProt A0ABM1Y0Z3).
T2 sequence (A0ABM1Y0Z3 1-403): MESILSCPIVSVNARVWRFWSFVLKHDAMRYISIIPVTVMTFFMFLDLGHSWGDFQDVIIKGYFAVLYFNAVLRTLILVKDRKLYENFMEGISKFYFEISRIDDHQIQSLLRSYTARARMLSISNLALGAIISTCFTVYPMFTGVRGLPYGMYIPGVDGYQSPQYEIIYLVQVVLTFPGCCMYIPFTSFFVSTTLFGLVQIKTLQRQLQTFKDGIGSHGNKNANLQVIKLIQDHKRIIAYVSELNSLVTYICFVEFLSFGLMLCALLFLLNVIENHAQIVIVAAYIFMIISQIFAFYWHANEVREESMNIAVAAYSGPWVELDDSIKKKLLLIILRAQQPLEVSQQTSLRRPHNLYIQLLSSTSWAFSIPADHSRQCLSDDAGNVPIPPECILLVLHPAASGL
T2 sequence (A0ABM1ZN50 1-479 partner): T1 sequence (A0ABM1ZN50 1-479 partner)

Experiment [3] addresses T3, AalbOR2 (Aedes albopictus, UniProt A0ABM1YVB6).
T3 sequence (A0ABM1YVB6 1-376): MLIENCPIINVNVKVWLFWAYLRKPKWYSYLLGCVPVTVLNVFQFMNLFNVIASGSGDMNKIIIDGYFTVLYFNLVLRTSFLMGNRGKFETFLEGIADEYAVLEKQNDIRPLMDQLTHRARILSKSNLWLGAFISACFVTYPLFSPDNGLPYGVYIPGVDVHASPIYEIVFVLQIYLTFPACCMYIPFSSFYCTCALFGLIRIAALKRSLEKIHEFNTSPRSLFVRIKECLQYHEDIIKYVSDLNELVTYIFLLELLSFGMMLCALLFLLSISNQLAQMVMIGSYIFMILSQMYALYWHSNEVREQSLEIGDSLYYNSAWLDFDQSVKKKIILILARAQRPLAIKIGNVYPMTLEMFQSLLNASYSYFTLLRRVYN
T3 sequence (A0ABM1ZN50 1-479 partner): T1 sequence (A0ABM1ZN50 1-479 partner)

Usually EC50 stands for the concentration at which the effect is half-maximal. High values mean weaker potency, low ones greater potency. Regarding `c1ccc2[nH]ccc2c1` [indole], the EC50 in experiment [1] is 1.7 µM; in experiment [2] it was 23.7 µM; in experiment [3], 0.77 µM.
`Cc1c[nH]c2ccccc12` [skatole]: the EC50 was 0.054 µM in experiment [1], 3.9 µM in experiment [2] and 10.1 µM in experiment [3].
